Calls of active or inactive are those of the source.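 Rule for the calls: active = target enzyme inhibited at least 50% at a set dose, and selective over every off-target enzyme by a set factor; inactive = weaker inhibition or too little selectivity.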
How the values were obtained:
[1] = biological target: Monoglyceride lipase (Mus musculus) (UniProt O35678); experiment: competitive ABPP of pPAFAH versus proteome hydrolases – biochemical, gel-based, FP-Rh fluorescence, complex proteome, SAR compounds, selectivity assay for pPAFAH inhibitor project, SAR follow-up (AID 588774); settings: MAGL, stronger effect = higher value;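 for inhibition: 0% = DMSO-only band intensity and 100% = blank gel background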
Sequence of Monoglyceride lipase (Mus musculus) (O35678 whole entry, looked up): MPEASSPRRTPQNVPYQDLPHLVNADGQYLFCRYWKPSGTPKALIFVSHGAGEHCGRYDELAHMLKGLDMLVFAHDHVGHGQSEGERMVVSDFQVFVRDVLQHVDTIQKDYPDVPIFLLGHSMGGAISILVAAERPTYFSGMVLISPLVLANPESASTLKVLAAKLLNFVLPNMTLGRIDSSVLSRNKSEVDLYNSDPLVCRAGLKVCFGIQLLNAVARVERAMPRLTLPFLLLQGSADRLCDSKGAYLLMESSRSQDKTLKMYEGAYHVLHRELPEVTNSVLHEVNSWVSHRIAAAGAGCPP

ABHD3 = experiment: as above; settings: at 10 µM, stronger effect = higher value
ABHD4 = ABHD4 (UniProt Q8VD66); experiment: as above; settings: stronger effect = higher value
Sequence of ABHD4 (Q8VD66 whole entry, looked up): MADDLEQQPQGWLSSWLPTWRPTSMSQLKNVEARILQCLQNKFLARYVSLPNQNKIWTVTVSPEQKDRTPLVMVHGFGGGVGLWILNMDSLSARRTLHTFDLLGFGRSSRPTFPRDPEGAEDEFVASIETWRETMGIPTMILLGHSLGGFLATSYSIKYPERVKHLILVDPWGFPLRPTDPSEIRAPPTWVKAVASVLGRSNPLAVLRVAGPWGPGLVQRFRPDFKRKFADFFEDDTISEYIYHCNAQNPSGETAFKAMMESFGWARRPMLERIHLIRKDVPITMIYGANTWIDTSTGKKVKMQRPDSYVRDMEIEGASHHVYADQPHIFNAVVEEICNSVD

[2] = biological target: Platelet-activating factor acetylhydrolase (Mus musculus) (UniProt Q60963); experiment: as above; settings: pPAFAH, stronger effect = higher value
Sequence of Platelet-activating factor acetylhydrolase (Mus musculus) (Q60963 whole entry, looked up): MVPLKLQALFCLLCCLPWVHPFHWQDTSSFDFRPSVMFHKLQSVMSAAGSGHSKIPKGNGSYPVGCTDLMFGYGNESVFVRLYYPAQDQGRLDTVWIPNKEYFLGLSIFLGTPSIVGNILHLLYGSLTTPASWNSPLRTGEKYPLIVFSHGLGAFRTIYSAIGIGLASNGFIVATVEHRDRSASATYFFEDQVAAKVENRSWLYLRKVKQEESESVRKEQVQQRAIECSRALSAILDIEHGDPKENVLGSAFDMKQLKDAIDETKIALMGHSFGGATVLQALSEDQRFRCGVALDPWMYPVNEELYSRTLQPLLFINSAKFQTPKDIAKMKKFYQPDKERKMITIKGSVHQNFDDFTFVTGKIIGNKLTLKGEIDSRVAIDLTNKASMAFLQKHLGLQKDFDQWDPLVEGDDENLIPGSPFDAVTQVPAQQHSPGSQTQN

ABHD6 = experiment: as above; settings: stronger effect = higher value
LYPLA2 = experiment: as above; settings: stronger effect = higher value
pPAFAH = experiment: as above; settings: anti-targets inhibited, at 10 µM
FAAH = experiment: as above; settings: stronger effect = higher value
LYPLA1 = experiment: as above; settings: stronger effect = higher value
[3] = as above; settings: at 10 µM
MW 30 kDa = experiment: as above; settings: stronger effect = higher value

| Structure (SMILES) | inhibition ([1]; at 10 µM) | inhibition (ABHD3) | inhibition (ABHD4; at 10 µM) | inhibition ([2]; at 10 µM) | inhibition ([2]; inhibition, at 0.1 µM) [%] | inhibition ([2]; inhibition, at 1 µM) [%] | inhibition (ABHD6; at 10 µM) | inhibition (LYPLA2; at 10 µM) | anti-target count (pPAFAH) | inhibition (FAAH; at 10 µM) | inhibition (LYPLA1; at 10 µM) | anti-target count ([3]; ABHD3, anti-targets inhibited) | anti-target count ([3]; ABHD4, anti-targets inhibited) | anti-target count ([3]; ABHD6, anti-targets inhibited) | anti-target count ([3]; FAAH, anti-targets inhibited) | anti-target count ([3]; LYPLA1, anti-targets inhibited) | anti-target count ([3]; LYPLA2, anti-targets inhibited) | anti-target count ([3]; MAGL, anti-targets inhibited) | inhibition (FAAH; inhibition, at 0.1 µM) [%] | inhibition (FAAH; inhibition, at 1 µM) [%] | other results |
| --- | --- | --- | --- | --- | --- | --- | --- | --- | --- | --- | --- | --- | --- | --- | --- | --- | --- | --- | --- | --- | --- |
| Cc1cc(N2CCN(C(=O)Oc3ccc(-c4ccccc4)cc3)CC2)c2ccccc2n1 | 0% (inactive) | 0% (inactive) | 0% (inactive) | 100% | 66 | 95 | 0% (inactive) | 0% (inactive) | 0 | 0% (inactive) | 0% (inactive) | 0 | 0 | 0 | 0 | 0 | 0 | 0 |  |  |  |
| Cc1cc(N2CCN(C(=O)Oc3noc4cc(Cl)ccc34)CC2)c2ccccc2n1 | 86% | 0% (inactive) | 0% (inactive) | 100% | 89 | 91 | 53% | 0% (inactive) | 4 | 100% | 50% (inactive) | 4 | 4 | 4 | 4 | 4 | 4 | 4 | 87 | 100 | inhibition ([1]; inhibition, at 0.1 µM): 79%; inhibition ([1]; inhibition, at 1 µM): 83%; inhibition (ABHD6; inhibition, at 0.1 µM): 53%; inhibition (ABHD6; inhibition, at 1 µM): 53%; inhibition (LYPLA1; inhibition, at 0.1 µM): 20%; inhibition (LYPLA1; inhibition, at 1 µM): 25% |
| Cc1cc(N2CCN(C(=O)Oc3ccc(C(F)(F)F)cc3)CC2)c2ccccc2n1 | 0% (inactive) | 0% (inactive) | 72% (inactive) | 93% (inactive) | 46 | 87 | 0% (inactive) | 0% (inactive) | 1 | 0% (inactive) | 0% (inactive) | 1 | 1 | 1 | 1 | 1 | 1 | 1 |  |  | inhibition (ABHD4; inhibition, at 0.1 µM): 32%; inhibition (ABHD4; inhibition, at 1 µM): 39% |
| O=C(Oc1noc2cc(Cl)ccc12)N1CCCCC1 | 23% (inactive) | 0% (inactive) | 0% (inactive) | 100% | 82 | 85 | 46% (inactive) | 0% (inactive) | 2 | 100% | 0% (inactive) | 2 | 2 | 2 | 2 | 2 | 2 | 2 | 96 | 100 | inhibition ([1]; inhibition, at 1 µM): 13%; inhibition (ABHD6; inhibition, at 0.1 µM): 20%; inhibition (ABHD6; inhibition, at 1 µM): 38%; inhibition (MW 30 kDa; at 1 µM): 40% |
| Cc1cc(N2CCN(C(=O)Oc3ccc(-c4ccc(Br)cc4)cc3)CC2)c2ccccc2n1 | 0% (inactive) | 0% (inactive) | 0% (inactive) | 56% (inactive) | 2 | 37 | 0% (inactive) | 0% (inactive) | 0 | 0% (inactive) | 0% (inactive) | 0 | 0 | 0 | 0 | 0 | 0 | 0 |  |  |  |
| Cc1cc(N2CCN(C(=O)Oc3ccc([N+](=O)[O-])cc3)CC2)c2ccccc2n1 | 64% (inactive) | 0% (inactive) | 0% (inactive) | 100% (inactive) | 47 | 95 | 0% (inactive) | 0% (inactive) | 2 | 71% (inactive) | 0% (inactive) | 2 | 2 | 2 | 2 | 2 | 2 | 2 | 16 | 36 | inhibition ([1]; inhibition, at 0.1 µM): 23%; inhibition ([1]; inhibition, at 1 µM): 51% |
| O=C(N1CCOCC1)n1oc2cc(Cl)ccc2c1=O | 68% (inactive) | 0% (inactive) | 0% (inactive) | 98% | 98 | 98 | 79% (inactive) | 54% (inactive) | 6 | 100% | 81% (inactive) | 6 | 6 | 6 | 6 | 6 | 6 | 6 | 83 | 96 | inhibition ([1]; inhibition, at 0.1 µM): 36%; inhibition ([1]; inhibition, at 1 µM): 53%; inhibition (ABHD6; inhibition, at 0.1 µM): 37%; inhibition (ABHD6; inhibition, at 1 µM): 58%; inhibition (LYPLA2; inhibition, at 0.1 µM): 21%; inhibition (LYPLA2; inhibition, at 1 µM): 33%; inhibition (MW 30 kDa; at 0.1 µM): 31%; inhibition (MW 30 kDa; at 1 µM): 43%; inhibition (LYPLA1; inhibition, at 0.1 µM): 17%; inhibition (LYPLA1; inhibition, at 1 µM): 33% |
| O=C(Oc1noc2cc(Cl)ccc12)N1CCOCC1 | 26% (inactive) | 0% (inactive) | 0% (inactive) | 100% | 96 | 97 | 66% (inactive) | 0% (inactive) | 3 | 100% | 0% (inactive) | 3 | 3 | 3 | 3 | 3 | 3 | 3 | 85 | 94 | inhibition (ABHD6; inhibition, at 0.1 µM): 27%; inhibition (ABHD6; inhibition, at 1 µM): 46%; inhibition (MW 30 kDa; at 0.1 µM): 24%; inhibition (MW 30 kDa; at 1 µM): 39% |
| Cc1cc(N2CCN(C(=O)Oc3ccc(C4CCCC4)cc3)CC2)c2ccccc2n1 | 0% (inactive) | 0% (inactive) | 27% (inactive) | 91% (inactive) | 28 | 82 | 0% (inactive) | 0% (inactive) | 0 | 0% (inactive) | 0% (inactive) | 0 | 0 | 0 | 0 | 0 | 0 | 0 |  |  |  |
| Cc1cc(N2CCN(C(=O)Oc3ccc(-n4cccc4)cc3)CC2)c2ccccc2n1 | 0% (inactive) | 0% (inactive) | 0% (inactive) | 87% (inactive) | 35 | 80 | 0% (inactive) | 0% (inactive) | 0 | 0% (inactive) | 0% (inactive) | 0 | 0 | 0 | 0 | 0 | 0 | 0 |  |  |  |
| Cc1cc(N2CCN(C(=O)Oc3ccc(C4CCCCC4)cc3)CC2)c2ccccc2n1 | 0% (inactive) | 0% (inactive) | 0% (inactive) | 95% (inactive) | 2 | 63 | 0% (inactive) | 0% (inactive) | 0 | 0% (inactive) | 0% (inactive) | 0 | 0 | 0 | 0 | 0 | 0 | 0 |  |  |  |
| Cc1cc(N2CCN(C(=O)n3oc4cc(Cl)ccc4c3=O)CC2)c2ccccc2n1 | 97% | 0% (inactive) | 48% (inactive) | 99% | 87 | 87 | 38% (inactive) | 24% (inactive) | 3 | 99% (inactive) | 73% (inactive) | 3 | 3 | 3 | 3 | 3 | 3 | 3 | 39 | 79 | inhibition ([1]; inhibition, at 0.1 µM): 54%; inhibition ([1]; inhibition, at 1 µM): 73%; inhibition (ABHD4; inhibition, at 0.1 µM): 36%; inhibition (ABHD4; inhibition, at 1 µM): 38%; inhibition (ABHD6; inhibition, at 0.1 µM): 19%; inhibition (ABHD6; inhibition, at 1 µM): 32%; inhibition (LYPLA2; inhibition, at 0.1 µM): 3%; inhibition (LYPLA2; inhibition, at 1 µM): 6%; inhibition (LYPLA1; inhibition, at 1 µM): 13% |
